From PMC8100298, “Histone deacetylase inhibitor resminostat in combination with sorafenib counteracts platelet-mediated pro-tumoral effects in hepatocellular carcinoma” (Scientific Reports, 2021)
Read-outs that look alike come from different tables or passages of the source.

Key:
Assay in all cases: Efficacy screening assay
Type in all cases: cell-based
PBMC = details: Non-cancer, healthy donors, 72 h
Procedure: C. Western blots for acetylated α-Tubulin, total α-Tubulin, p21 and GAPDH (loading control).
Cells were treated with vehicle control (0.1 % DMSO), 1 µM or 3 µM resminostat for 24 hours. Grouped blots were composed from cropped parts of individual blots for each antibody. Original blots with exposures and indicated cropped areas can be found in the supplementary information.
D. Cell line screen determining the EC50s of resminostat in 74 cell lines representing 14 different ca ncer indications. In addition, peripheral blood mononuclear cells (PBMCs) from healthy donors were tested. Each dot represents an EC50. […]
labelled fluorogenic peptide substrates: fluorogenic peptide from p53 residues 379-382 (RHKK(Ac)AMC) for HDAC1, 2, 3, 6, 10, 11; fluorogenic HDAC Class IIa Substrate (Trifluoro acetyl Lysine, Ac-LGK(TFA)-AMC) for HDAC 4, 5, 7, 9; and fluorogenic peptide from p53 residues 379-382 (RHK(Ac)K(Ac)AMC) for HDAC8. […] In a second step, the deacetylated products were digested by the addition of developer for 1 h at 30°C to produce the fluorescent signal proportional to the amount of deacetylated substrates and the fluorescence was measured using an Envision plate reader at 355 nm (excitation) and 460 nm (emission). A kinetic measurement was performed for ~1 h with 5 min intervals and d ata from the final time point were analysed. […]

ACHN = details: 72 h, kidney
Procedure: (§1) In a two-step reaction, the substrate with the acetylated lysine side chain was incubated for with a sample containing HDAC activity to p roduce the deacetylated products: 1 h at 30°C for HDAC1, 2, 3 and 6; 30 min at RT for HDAC4, 5, 7 and 9; 2 h at 30°C for HDAC8, 10 and […]
(§2) (excitation) and 460 nm (emission). […]
(§3) The experiment was performed by Oncolead GmbH & Co. KG (Karlsfeld , Germany), based on a standardized screening procedure . Cell lines were purchased directly from the ATCC, NCI and DSMZ cell line c ollections. Cells used for the study had undergone less than 20 passages. To ensure the absence of potential contamination and wrong assignment, all cell lines were tested using a whole genome assay (Agilent, USA). All cell lines were grown as recommended by the suppliers and with addition of 100 U/mL penicillin G and 100 µg/mL; streptomycin. Cell growth and treatments were performed in Nunclon D 96 -well plates (NUNC, Germany). The optimal seeding density for each cell line was determined to ensure exponential growth for the duration of the experiment. All cells growing without anti-cancer agents were sub-conﬂuent by the end of the treatment, as determined by visual inspection.
(§4) After an initial 24 h pre-growth period, the compounds were added. The vehicle concentration […]
(§5) was 0.1% DMSO. After incubation at 37°C for 72 h, the culture medium was aspirated, and the cells were precipitated by the addition of 10% trichloroacetic acid (Sigma-Aldrich, Missouri, US). After overnight incubation at 4°C, the plates were washed three times with deionized water. The precipitates were then stained with SRB (0.4% wt/v sulforhodamine B solution in 1% acetic acid, Sigma-Aldrich, Missouri, US). Afterwards, the plates were washed six times with 1% acetic acid to remove unbound stain. After drying the plates at room temperature, the bound SRB was solubilized with 10 mM Tris base and the optical density was measured at 520 nm using a Victor2 plate reader (Perkin Elmer, Germany). Blank OD values were subtracted from mean OD values for each concentration. The nonlinear curve ﬁtting and EC50 calculations were per formed using XLﬁt and algorithm “205” (ID Business […]
(§6) For cell-based and other in vitro assays, data are presented as data mean ± SD of at least […]
(§7) For the orthotopic mouse model, data are presented as mean + SEM. For statistical analysis, one-way ANOVA and multiple comparison (Dunnett) was performed for compound treatments compared to vehicle control. The adjusted p-values with 95% confidence interval were reported as significant. For comparison of EC50 values in Figure 1F, one-way ANOVA with multiple comparison testing (Tukey) was performed. Multiplicity adjusted p -values for the EC50 with sorafenib versus resminostat for each cell line and comparison between cell lines for sorafenib are presented (95% confidence interval for significance testing). For comparison of EC50 data in Figure 2B, one-way ANOVA with multiple comparison testing (Tukey) was performed. Multiplicity adjusted p-values with 95% confidence interval was applied. For the invasion assays in Figure 4, one-way ANOVA with multiple comparison testing (Tukey) was performed. Multiplicity adjusted p-values with 95% confidence interval was applied. The adjusted p-values comparing vehicle control without vs. with platelets and compound

NCIH82 = details: Homo sapiens, NCI-H82, NCIH82, lung, 72 h
Procedure: as §1, §2, §3, §4, §5, §6, §7

MDAMB231 = details: MDAMB231, breast
Procedure: as §3, §4, §5
(§8) Multiplicity adjusted p-values with 95% confidence interval was applied. For the invasion assays in Figure 4, one-way ANOVA with multiple comparison testing (Tukey) was performed. Multiplicity adjusted p-values with 95% confidence interval was applied. The adjusted p-values comparing vehicle control without vs. with platelets and compound

MG63 = details: MG63, bone
Procedure: as §3, §4, §5, §8

LOVO = details: 72 h, colon
Procedure: as §3, §4, §5, §8

[1] = log of EC50, negative, read-out: log(EC50) (converted)

CN(C)Cc1ccc(S(=O)(=O)n2ccc(/C=C/C(=O)NO)c2)cc1 [resminostat, Resminostat]
EC50 (PBMC; [1]): 8.71 µM | EC50 (PBMC; read-out: EC50): 8.68 µM | EC50 (ACHN; Homo sapiens, log of EC50, negative, read-out: log(EC50) (converted)): 1.95 µM | EC50 (ACHN; Homo sapiens, read-out: EC50): 1.95 µM | EC50 (ACHN; read-out: EC50): 1.95 µM | EC50 (NCIH82; [1]): 0.776 µM | EC50 (NCIH82; read-out: EC50): 0.77 µM | EC50 (MDAMB231; Homo sapiens, MDA-MB-231, 72 h, log of EC50, negative, read-out: log(EC50) (converted)): 2.34 µM | EC50 (MDAMB231; Homo sapiens, MDA-MB-231, 72 h, read-out: EC50): 2.36 µM | EC50 (MDAMB231; 72 h, read-out: EC50): 2.36 µM | EC50 (MG63; Homo sapiens, MG-63, 72 h, log of EC50, negative, read-out: log(EC50) (converted)): 1.74 µM | EC50 (MG63; Homo sapiens, MG-63, 72 h, read-out: EC50): 1.76 µM | EC50 (MG63; 72 h, read-out: EC50): 1.75 µM | EC50 (LOVO; Homo sapiens, LoVo, log of EC50, negative, read-out: log(EC50) (converted)): 1.05 µM | EC50 (LOVO; Homo sapiens, LoVo, read-out: EC50): 1.05 µM | EC50 (LOVO; read-out: EC50): 1.05 µM
